Test results from patent US11111251B2, “Positive allosteric modulators of the muscarinic acetylcholine receptor M1” (Vanderbilt University, priority 2016, dated 2021).

Biological target: T1, human mAChR M1 (Homo sapiens, UniProt P11229)
T1 sequence (P11229 1-460): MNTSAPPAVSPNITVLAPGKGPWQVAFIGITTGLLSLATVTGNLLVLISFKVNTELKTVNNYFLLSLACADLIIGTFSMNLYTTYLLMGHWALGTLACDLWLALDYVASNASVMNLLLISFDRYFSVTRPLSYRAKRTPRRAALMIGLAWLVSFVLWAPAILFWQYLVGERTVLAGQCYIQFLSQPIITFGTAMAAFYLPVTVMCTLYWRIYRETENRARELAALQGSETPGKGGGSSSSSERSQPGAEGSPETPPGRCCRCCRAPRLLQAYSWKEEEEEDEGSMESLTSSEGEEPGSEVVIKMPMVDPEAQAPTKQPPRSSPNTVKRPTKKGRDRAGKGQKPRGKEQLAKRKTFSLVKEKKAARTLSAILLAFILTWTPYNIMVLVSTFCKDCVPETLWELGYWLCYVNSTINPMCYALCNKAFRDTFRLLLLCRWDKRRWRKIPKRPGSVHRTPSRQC
Experiment: mAChR M1 cell-based functional assay: calcium mobilization, positive allosteric modulator mode (increase in EC20 acetylcholine response)
Conditions: Table 2, human M1; for EC50: read-out: Human M1 EC50; for Emax: read-out: Human M1 Emax (%)
In short: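 PAM potency reflects the concentration-dependent increase in calcium response to an EC20 acetylcholine challenge, given 144 s into a 300 s read after compound addition at 4 s (EC80 follows at 230 s). Cells were hM1-expressing CHO-K1, loaded 50 min with Fluo-4 AM. Curves used 11 points at 1:3 dilutions and four-parameter logistic fitting.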

EC50 [nM] | Emax [%] | Compound | Human M1 Emax (%)
1710 | 72.9 | Cn1ncc2nc(C(=O)N[C@H]3CCC[C@@H]3O)cc(Cc3ccc(-c4cscn4)cc3)c21 [Compound 491, N-[(1S,2S)-2-hydroxycyelopentyl]-1-methyl-7-[(4-thiazol-4-ylphenyl)methyl]pyrazolo-[4,3-b]pyridine-5-carboxamide] | –
504 | 73.3 | Cn1ncc2nc(C(=O)N[C@H]3CCCC[C@@H]3O)cc(Cc3ccc(-c4cscn4)cc3)c21 [Compound 492, N-[(1S,2S)-2-hydroxycyclohexyl]-1-methyl-7-[(4-thiazol-4-ylphenyl)methyl]pyrazolo-[4,3-b]pyridine-5-carboxamide] | –
176 | 65.5 | Cn1ncc2nc(C(=O)N[C@H]3CCOC[C@@H]3O)cc(Cc3ccc(-c4cscn4)cc3)c21 [Compound 493, N-[(3R,4S)-3-hydroxytetrahydropyran-4-yl]-1-methyl-7-[(4-thiazol-4-ylphenyl)-methyl]pyrazolo[4,3-b]pyridine-5-carboxamide] | –
5020 | 52.2 | Cn1ncc2nc(C(=O)NCC3CCO3)cc(Cc3ccc(-c4cscn4)cc3)c21 (centres unmarked) [Compound 494, 1-methyl-N-(oxetan-2-ylmethyl)-7-[(4-thiazol-4-ylphenyl)methyl]pyrazolo-[4,3-b]pyridine-5-carboxamide] | –
3910 | 65.1 | Cn1ncc2nc(C(=O)NC[C@H]3CCCO3)cc(Cc3ccc(-c4cscn4)cc3)c21 [Compound 495, 1-methyl-N-[[(2R)-tetrahydrofuran-2-yl]methyl]-7-[(4-thiazol-4-ylphenyl)methyl]-pyrazolo[4,3-b]pyridine-5-carboxamide] | –
> 10000 | 65.7 | Cn1ncc2nc(C(=O)N[C@@H]3CC[C@H]3O)cc(Cc3ccc(-n4cccn4)cc3)c21 [Compound 496, N-[(1R,2R)-2-hydroxycyclobutyl]-1-methyl-7-[(4-pyrazol-1-ylphenyl)methyl]pyrazolo-[4,3-b]pyridine-5-carboxamide] | –
1180 | 68.1 | Cn1ncc2nc(C(=O)N[C@H]3CCC[C@@H]3O)cc(Cc3ccc(-n4cccn4)cc3)c21 [Compound 497, N-[(1S,2S)-2-hydroxycyelopentyl]-1-methyl-7-[(4-pyrazol-1-ylphenyl)methyl]pyrazolo-[4,3-b]pyridine-5-carboxamide] | –
428 | 67.3 | Cn1ncc2nc(C(=O)N[C@H]3CCCC[C@@H]3O)cc(Cc3ccc(-n4cccn4)cc3)c21 [Compound 498, N-[(1S,2S)-2-hydroxycyclohexyl]-1-methyl-7-[(4-pyrazol-1-ylphenyl)methyl]pyrazolo-[4,3-b]pyridine-5-carboxamide] | –
267 | 65.3 | Cn1ncc2nc(C(=O)N[C@H]3CCOC[C@@H]3O)cc(Cc3ccc(-n4cccn4)cc3)c21 [Compound 499, N-[(3R,4S)-3-hydroxytetrahydropyran-4-yl]-1-methyl-7-[(4-pyrazol-1-ylphenyl)methyl]-pyrazolo[4,3-b]pyridine-5-carboxamide] | –
> 10000 | 63.1 | Cn1ncc2nc(C(=O)NC3CC4(COC4)C3)cc(Cc3ccc(-n4cccn4)cc3)c21 [Compound 500, 1-methyl-N-(2-oxaspiro[3.3]heptan-6-yl)-7-[(4-pyrazol-1-ylphenyl)methyl]pyrazolo-[4,3-b]pyridine-5-carboxamide] | –
> 10000 | 57.4 | Cn1ncc2nc(C(=O)NCC3CCO3)cc(Cc3ccc(-n4cccn4)cc3)c21 (centres unmarked) [Compound 501, 1-methyl-N-(oxetan-2-ylmethyl)-7-[(4-pyrazol-1-ylphenyl)methyl]pyrazolo[4,3-b]-pyridine-5-carboxamide] | –
4140 | 67.2 | Cn1ncc2nc(C(=O)NC[C@H]3CCCO3)cc(Cc3ccc(-n4cccn4)cc3)c21 [Compound 502, 1-methyl-7-[(4-pyrazol-1-ylphenyl)methyl]-N-[[(2R)-tetrahydrofuran-2-yl]methyl]-pyrazolo[4,3-b]pyridine-5-carboxamide] | –
1560 | 66.6 | Cn1ccc(-c2ccc(Cc3cc(C(=O)NC4CCOCC4)nc4ccn(C)c34)cn2)n1 [Compound 503, 1-methyl-7-[[6-(1-methylpyrazol-3-yl)-3-pyridyl]methyl]-N-tetrahydropyran-4-yl-pyrrolop,2-blpyridine-5-carboxamide;] | –
1350 | 79.5 | Cn1ccc(-c2ccc(Cc3cc(C(=O)NC4CCOC(C)(C)C4)nc4ccn(C)c34)cn2)n1 (centres unmarked) [Compound 504, N-(2,2-dimethyltetrahydropyran-4-yl)-1-methyl-7-[[6-(1-methylpyrazol-3-yl)-3-pyridyl]methyl]pyrrolo[3,2-b]pyridine-5-carboxamide;] | –
752 | 79.4 | Cn1ccc(-c2ccc(Cc3cc(C(=O)NC4CCOCC4(C)C)nc4ccn(C)c34)cn2)n1 (centres unmarked) [Compound 505, N-(3,3-dimethyltetrahydropyran-4-yl)-1-methyl-7-[[6-(1-methylpyrazol-3-yl)-3-pyridyl]methyl]pyrrolo[3,2-b]pyridine-5-carboxamide;] | –
7120 | 78.2 | CC1CC(NC(=O)c2cc(Cc3ccc(-c4ccn(C)n4)nc3)c3c(ccn3C)n2)CC(C)O1 (centres unmarked) [Compound 506, N-(2,6-dimethyltetrahydropyran-4-yl)-1-methyl-7-[[6-(1-methylpyrazol-3-yl)-3-pyridyl]methyl]pyrrolo[3,2-b]pyridine-5-carboxamide;] | –
985 | 77.6 | Cn1ccc(-c2ccc(Cc3cc(C(=O)NC4CC5(COC5)C4)nc4ccn(C)c34)cn2)n1 [Compound 507, 1-methyl-7-[[6-(1-methylpyrazol-3-yl)-3-pyridyl]methyl]-N-(2-oxaspiro[3.3]heptan-6-yl)pyrrolo[3,2-b]pyridine-5-carboxamide;] | –
2310 | 79.9 | Cn1ccc(-c2ccc(Cc3cc(C(=O)NCC4CCOCC4)nc4ccn(C)c34)cn2)n1 [Compound 508, 1-methyl-7-[[6-(1-methylpyrazol-3-yl)-3-pyridyl]methyl]-N-(tetrahydropyran-4-ylmethyl)pyrrolo[3,2-b]pyridine-5-carboxamide;] | –
4320 | 75.4 | Cn1ccc(-c2ccc(Cc3cc(C(=O)NCC4CCOC4)nc4ccn(C)c34)cn2)n1 (centres unmarked) [Compound 509, 1-methyl-7-[[6-(1-methylpyrazol-3-yl)-3-pyridyl]methyl]-N-(tetrahydrofuran-3-ylmethyl)pyrrolo[3,2-b]pyridine-5-carboxamide;] | –
4280 | 76.8 | Cn1ccc(-c2ccc(Cc3cc(C(=O)NC4CC(F)C4)nc4ccn(C)c34)cn2)n1 (centres unmarked) [Compound 510, N-(3-fluorocyclobutyl)-1-methyl-7-[[6-(1-methylpyrazol-3-yl)-3-pyridyl]methyl]pyrrolo[3,2-b]pyridine-5-carboxamide;] | –
1770 | 66.1 | Cn1ccc(-c2ccc(Cc3cc(C(=O)NC4CC(F)(F)C4)nc4ccn(C)c34)cn2)n1 [Compound 511, N-(3,3-difluorocyclobutyl)-1-methyl-7-[[6-(1-methylpyrazol-3-yl)-3-pyridyl]methyl]pyrrolo[3,2-b]pyridine-5-carboxamide;] | –
91.3 | 70.8 | Cn1ccc(-c2ccc(Cc3cc(C(=O)N[C@H]4CCCC[C@@H]4O)nc4ccn(C)c34)cn2)n1 [Compound 512, N-[(1S,2S)-2-hydroxycyclohexyl]-1-methyl-7-[[6-(1-methylpyrazol-3-yl)-3-pyridyl]methyl]pyrrolo[3,2-b]pyridine-5-carboxamide; and] | –
712 | 77.8 | Cn1ccc(-c2ccc(Cc3cc(C(=O)N[C@H]4CC[C@@H]4O)nc4ccn(C)c34)cn2)n1 [Compound 513, N-[(1S,2S)-2-hydroxycyclobutyl]-1-methyl-7-[[6-(1-methylpyrazol-3-yl)-3-pyridyl]methyl]pyrrolo[3,2-b]pyridine-5-carboxamide] | –
– | – | N-[(1S,2S)-2-hydroxycyclohexyl]-7-(4-[(4-2-ylphenyl)methyl]thieno[3,2-b]pyridine-5-carboxamide [Compound 295] | 72.42
